These are literature values, as cited in patent publication US5770699A, “Process for production of inhibited forms of activated blood factors” (COR Therapeutics, Inc., priority 1996, dated 1998).

Usually Ki stands for the equilibrium dissociation constant of an inhibitor or competing ligand from its target.

For the data set, the target named is Factor Xa. As to conditions: transient (reversible) inhibition of Factor Xa; stated as known; cited from earlier work.

As to `N=C(N)c1ccc2oc(CCc3cc4cc(C(=N)N)ccc4o3)cc2c1` [1,2-bis(5-amidino 2-benzofuranyl) ethane], the Ki is 0.57 µM.
